One data set deals with SU-DHL9. Briefly: Viability test on SU-DHL9 cells. The format is cell-based, human. How it is done: (§1) All experiments with hematological cell lines were done using phenol red-free RPMI 1640+L-glutamine (PAA Laboratories) supplemented with 1% PenStrep and 10% FBS gold, except experiments with OCI-Ly7 which were carried out in Gibco IMEM+GlutaMAX and 25 mM HEPES containing 20% FBS gold and 1% PenStrep. Cells were incubated in triplicates with increasing concentrations of the compounds for 48 h, changes in viability were determined using the cell proliferation and cytotoxicity assays EZ4U (Biomedica Group, Austria) and CellTiter-Blue Cell Viability Assay (Promega, Madison, Wis., USA) following instructions of the manufacturers. IC50 values were calculated from two independent experiments using GraphPad Prism 5 software.
Hematologic malignancies are highly heterogeneous in their biology and behavior. This and the fact that some patient groups are resistant to therapy underlines the urgent need for new therapeutic drugs. Compound 15 has therefore been tested on other cell lines representing a variety of hematologic neoplasms: two T-cell acute leukemia cell lines (CCRF, Jurkat), two myeloid leukemia cell lines (HL60, K562), and two additional B-cell lines (SU-DHL6, SU-DHL9). Viability was assessed as described in the methods section above. […] An exception was the chronic myeloid leukemia line K562. […]

The test system of data set [1] is PBMC of CLL patients cultured over a layer of mouse fibroblast cells (M2-10B4). Briefly: Viability of CLL cells in co-culture with M2-10B4 fibroblast cells. The format is cell-based. As to conditions: Homo sapiens, M210B4, 48 h. Here is the method:
Primary cells were incubated at a density of 300,000 cells per well in 96-well plates in a total volume of 100 μl of Gibco RPMI 1640+L-glutamine (PAA Laboratories) supplemented with 20% FBS gold with increasing concentrations of compounds for 48 h. For co-culture experiments, 150,000 M2-10B4 mouse fibroblast cells were seeded into 12-well plates and allowed to form a confluent layer over night. Supernatant was replaced by 3 million primary cells in a total volume of 1 ml medium and incubated with increasing concentrations of compounds for 48 h. Viability was measured using CellTiter-Blue Cell Viability Assay (Promega, Madison, Wis., USA) following the instructions of the manufacturers. Experiments with primary cells were done in triplicates, IC50 values were calculated from the mean values of all samples used in the various experiments using GraphPad Prism 5 software.
As a last step, it has been sought to evaluate the cytotoxicity of compound 15 in primary cells and compare its activity to the impact of fludarabine. To this end, peripheral blood mononuclear cells (PBMC) of chronic lymphocytic leukemia (CLL) patients were used in two experimental settings. They were cultured in conventional suspension culture being exposed to increasing concentrations of drug. […]

Data set [2] has as its system PBMC of healthy individuals. Briefly: Viability of healthy donor cells in suspension culture. The format is cell-based. Particulars: Homo sapiens, 48 h, read-out: IC50 HD Suspension. An excerpt:
(§2) Hematological cell lines were acquired from the Leibniz Institute DSMZ-German Collection of Microorganisms and Cell Cultures (www.dsmz.de). Sixteen patients diagnosed with chronic lymphocytic leukemia at the Division of Hematology and Hemostaseology at the Vienna General Hospital and four healthy donors were included in the study. All participants signed informed consent according to the Declaration of Helsinki (Ethics Committee Nr: EK 1722/2012). Peripheral blood mononuclear cells (PBMC) were isolated using standardized Ficoll-Hypaque gradient centrifugation (Seromed, Berlin, Germany) and stored in liquid nitrogen until use. […]
(§3) Primary cells were incubated at a density of 300,000 cells per well in 96-well plates in a total volume of 100 μl of Gibco RPMI 1640+L-glutamine (PAA Laboratories) supplemented with 20% FBS gold with increasing concentrations of compounds for 48 h. […] Viability was measured using CellTiter-Blue Cell Viability Assay (Promega, Madison, Wis., USA) following the instructions of the manufacturers. Experiments with primary cells were done in triplicates, IC50 values were calculated from the mean values of all samples used in the various experiments using GraphPad Prism 5 software. […]

A further data set concerns Jurkat. Briefly: Viability test on Jurkat cells. The format is cell-based, human. Here is the method:
JURKAT and CCRF-CEM (T-cell acute lymphoblastic leukemia), HL60 and K562 representing acute and chronic myeloid leukemia, respectively, the chronic lymphocytic leukemia cell line MEC-1, and the diffuse large B-cell lymphoma cell line U-2940 were cultured in Gibco RPMI 1640+GlutaMAX (Life Technologies, Carlsbad, Calif., USA) supplemented with 10% fetal bovine serum gold (FBS gold; PAA Laboratories, Pasching, Austria) and 1% PenStrep (100 U/ml penicillin and 100 μg/ml streptomycin; PAA Laboratories), and maintained at 37° C. in humidified atmosphere with 5% CO2. […]
as §1, with “software. […]” for “software.”

Data set [3] relates to PBMC of chronic lymphocytic leukemia (CLL) patients. Briefly: Viability of primary CLL cells in suspension culture. The format is cell-based. Particulars: Homo sapiens, CLL cell, 48 h.
Source text: as §2, §3

As to `CCOc1ccccc1C(=O)/C=C/c1cc2ccccc2[nH]1` [Compound 15, 1-(2-Ethoxyphenyl)-3-(1H-indole-2-yl)-2-propen-1-one], the 50% inhibitory concentration (IC50) (commonly the midpoint of a concentration-inhibition curve) in the data set with SU-DHL9 (Homo sapiens, B-cell lymphoma, nd = no significant cytotoxic activity up to 100 μM) stood at 30 nM; in data set [1], 680 nM; in data set [2], 13.6 µM; with Jurkat (Homo sapiens, T-cell acute leukemia, nd = no significant cytotoxic activity up to 100 μM), 40 nM; in data set [3], 1180 nM. Moreover, the “viability, % of control” value is “less than 30 % of control” in the data set on SU-DHL9 (SU-DHL9, at concentrations <1 μM) and “less than 30 % of control” in the data set with Jurkat (at concentrations <1 μM).

These data come from US10280156B2, “Heteroaromatic chalcone derivatives and their medical use” (Medizinische Universität Wien, priority 2014, dated 2019).
